Experimental data taken from patent EP4745135A1 (Gluetacs Therapeutics (Shanghai) Co., Ltd., priority 2023, dated 2025).

Columns and labels:
[1] = molecular target: T1, CK1α (Homo sapiens, UniProt P48729+Q96SW2); test: Western blot, degradation of substrate protein in hPBMCs; type: cell-based; details: 24 hours treatment, compounds at 50 nM and 500 nM (concentration behind the class not stated)
T1 construct: effects of the compounds of the present disclosure on the expression of target proteins in cells; endogenous in cells; host or cells: human PBMCs (Milecell Biotechnologies)

[2] = molecular target: T2, IKZF1 (Homo sapiens, UniProt Q13422+Q96SW2); test: as above; type: cell-based; details: 24 hours treatment, compounds at 50 nM and 500 nM (concentration behind the class not stated)
T2 construct: effects of the compounds of the present disclosure on the expression of target proteins in cells; endogenous in cells; host or cells: human PBMCs (Milecell Biotechnologies)

[3] = molecular target: T3, IKZF2 (Homo sapiens, UniProt Q96SW2+Q9UKS7); test: as above; type: cell-based; details: 24 hours treatment, compounds at 50 nM and 500 nM (concentration behind the class not stated)
T3 construct: effects of the compounds of the present disclosure on the expression of target proteins in cells; endogenous in cells; host or cells: human PBMCs (Milecell Biotechnologies)

[4] = molecular target: T4, IKZF3 (Homo sapiens, UniProt Q96SW2+Q9UKT9); test: as above; type: cell-based; details: 24 hours treatment, compounds at 50 nM and 500 nM (concentration behind the class not stated)
T4 construct: effects of the compounds of the present disclosure on the expression of target proteins in cells; endogenous in cells; host or cells: human PBMCs (Milecell Biotechnologies)

[5] = molecular target: T5, WEE1 (Homo sapiens, UniProt P30291+Q96SW2); test: as above; type: cell-based; details: 24 hours treatment, compounds at 50 nM and 500 nM (concentration behind the class not stated)
T5 construct: effects of the compounds of the present disclosure on the expression of target proteins in cells; endogenous in cells; host or cells: human PBMCs (Milecell Biotechnologies)

[6] = test system: GSPT1; test: as above; type: cell-based, Human; details: 24 hours treatment, compounds at 50 nM and 500 nM (concentration behind the class not stated)
[7] = molecular target: T6, human Cereblon WT GST-tagged protein (Homo sapiens, UniProt Q96SW2); test: CRBN-binding affinity, HTRF (CEREBLON BINDING kit); details: for inhibition at 0.5 µM: read-out: Inhibition Rate at 0.5 µM (%); for inhibition at 2 µM: read-out: Inhibition Rate at 2 µM (%)
T6 construct: purchased CISBIO 64BDCRBNPEH
T6 sequence (Q96SW2 whole entry): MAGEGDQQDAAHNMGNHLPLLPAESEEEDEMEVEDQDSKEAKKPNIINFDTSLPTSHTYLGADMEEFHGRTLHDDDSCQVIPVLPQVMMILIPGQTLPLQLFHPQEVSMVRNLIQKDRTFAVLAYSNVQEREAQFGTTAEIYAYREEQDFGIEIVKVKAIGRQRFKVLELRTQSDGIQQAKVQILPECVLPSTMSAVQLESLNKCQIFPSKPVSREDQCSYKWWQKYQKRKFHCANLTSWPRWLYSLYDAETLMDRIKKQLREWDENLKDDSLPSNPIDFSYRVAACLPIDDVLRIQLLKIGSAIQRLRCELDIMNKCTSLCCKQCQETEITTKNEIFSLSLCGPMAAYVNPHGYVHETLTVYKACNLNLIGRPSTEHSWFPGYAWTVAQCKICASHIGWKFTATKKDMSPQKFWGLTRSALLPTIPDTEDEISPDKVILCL

T3 sequence (Q9UKS7 whole entry): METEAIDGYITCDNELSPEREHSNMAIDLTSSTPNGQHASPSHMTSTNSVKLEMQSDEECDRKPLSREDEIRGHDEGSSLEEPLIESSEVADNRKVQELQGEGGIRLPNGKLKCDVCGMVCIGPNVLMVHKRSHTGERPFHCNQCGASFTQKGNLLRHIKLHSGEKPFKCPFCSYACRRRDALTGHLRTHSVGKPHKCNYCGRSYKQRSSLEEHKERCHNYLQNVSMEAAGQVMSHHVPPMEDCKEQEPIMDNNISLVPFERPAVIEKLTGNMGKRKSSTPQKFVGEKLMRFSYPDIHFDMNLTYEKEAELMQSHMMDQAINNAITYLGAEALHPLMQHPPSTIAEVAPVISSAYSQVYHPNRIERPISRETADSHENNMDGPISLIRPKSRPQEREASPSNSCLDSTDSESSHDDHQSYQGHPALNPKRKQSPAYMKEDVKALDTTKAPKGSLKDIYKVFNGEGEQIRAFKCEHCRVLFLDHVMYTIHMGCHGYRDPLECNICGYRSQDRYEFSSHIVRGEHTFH
T3 sequence (Q96SW2 whole entry): as the sequence (Q96SW2 whole entry) above
T3 sequence (Q16531 whole entry partner): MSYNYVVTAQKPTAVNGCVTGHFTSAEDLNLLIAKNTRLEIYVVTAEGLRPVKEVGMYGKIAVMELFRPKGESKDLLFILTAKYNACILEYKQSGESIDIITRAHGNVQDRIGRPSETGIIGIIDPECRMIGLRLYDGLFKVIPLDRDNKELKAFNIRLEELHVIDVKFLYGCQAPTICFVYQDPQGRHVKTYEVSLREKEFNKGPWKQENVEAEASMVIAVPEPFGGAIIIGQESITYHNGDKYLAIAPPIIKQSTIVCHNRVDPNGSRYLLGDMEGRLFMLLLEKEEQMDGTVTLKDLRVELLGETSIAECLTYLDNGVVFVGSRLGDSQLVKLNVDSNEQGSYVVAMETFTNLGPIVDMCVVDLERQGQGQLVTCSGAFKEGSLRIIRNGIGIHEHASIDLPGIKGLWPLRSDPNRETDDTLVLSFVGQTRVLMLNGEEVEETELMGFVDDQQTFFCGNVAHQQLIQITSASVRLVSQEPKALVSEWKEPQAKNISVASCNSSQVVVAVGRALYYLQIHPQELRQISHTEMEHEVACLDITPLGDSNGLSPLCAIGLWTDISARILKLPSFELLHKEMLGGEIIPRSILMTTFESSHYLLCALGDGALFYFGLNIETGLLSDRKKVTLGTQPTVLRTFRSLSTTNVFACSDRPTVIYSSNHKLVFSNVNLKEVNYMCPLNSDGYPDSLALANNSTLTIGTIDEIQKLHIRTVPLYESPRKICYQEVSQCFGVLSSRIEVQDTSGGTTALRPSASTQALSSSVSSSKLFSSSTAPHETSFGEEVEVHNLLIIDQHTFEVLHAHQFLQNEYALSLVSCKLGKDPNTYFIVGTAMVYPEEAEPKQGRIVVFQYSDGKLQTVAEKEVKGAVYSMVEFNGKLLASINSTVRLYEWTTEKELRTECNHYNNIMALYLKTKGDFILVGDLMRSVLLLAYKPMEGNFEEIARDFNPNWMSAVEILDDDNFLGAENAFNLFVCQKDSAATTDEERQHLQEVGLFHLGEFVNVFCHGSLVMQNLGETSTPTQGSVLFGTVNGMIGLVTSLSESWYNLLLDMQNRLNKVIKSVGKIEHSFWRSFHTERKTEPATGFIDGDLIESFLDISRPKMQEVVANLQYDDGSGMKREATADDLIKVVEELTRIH
T2 sequence (Q13422 whole entry): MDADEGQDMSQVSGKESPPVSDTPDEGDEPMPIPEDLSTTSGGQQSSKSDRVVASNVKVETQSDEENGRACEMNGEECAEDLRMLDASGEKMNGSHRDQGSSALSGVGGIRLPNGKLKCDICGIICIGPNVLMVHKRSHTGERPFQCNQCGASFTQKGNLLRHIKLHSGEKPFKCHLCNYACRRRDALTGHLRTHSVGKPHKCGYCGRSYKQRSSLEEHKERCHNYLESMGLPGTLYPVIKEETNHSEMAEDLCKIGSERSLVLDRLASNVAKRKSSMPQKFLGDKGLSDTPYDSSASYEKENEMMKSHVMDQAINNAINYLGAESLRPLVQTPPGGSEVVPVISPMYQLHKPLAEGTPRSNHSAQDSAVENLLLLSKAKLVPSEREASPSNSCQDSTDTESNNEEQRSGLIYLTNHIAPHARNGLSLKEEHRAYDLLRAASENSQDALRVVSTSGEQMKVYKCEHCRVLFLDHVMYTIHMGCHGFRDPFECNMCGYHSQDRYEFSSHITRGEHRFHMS
T2 sequence (Q96SW2 whole entry): as the sequence (Q96SW2 whole entry) above
T2 sequence (Q16531 whole entry partner): as the sequence (Q16531 whole entry partner) above
T1 sequence (P48729 whole entry): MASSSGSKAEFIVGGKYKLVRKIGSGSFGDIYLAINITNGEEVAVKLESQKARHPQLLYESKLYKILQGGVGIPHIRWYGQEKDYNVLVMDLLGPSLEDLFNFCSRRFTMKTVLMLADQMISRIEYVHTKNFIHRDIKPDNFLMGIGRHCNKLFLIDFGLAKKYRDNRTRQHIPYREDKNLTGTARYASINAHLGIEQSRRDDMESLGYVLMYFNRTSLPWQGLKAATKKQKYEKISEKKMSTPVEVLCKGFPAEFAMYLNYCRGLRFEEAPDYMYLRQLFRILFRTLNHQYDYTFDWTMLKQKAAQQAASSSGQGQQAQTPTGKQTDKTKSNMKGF
T1 sequence (Q96SW2 whole entry): as the sequence (Q96SW2 whole entry) above
T1 sequence (Q16531 whole entry partner): as the sequence (Q16531 whole entry partner) above
T5 sequence (P30291 whole entry): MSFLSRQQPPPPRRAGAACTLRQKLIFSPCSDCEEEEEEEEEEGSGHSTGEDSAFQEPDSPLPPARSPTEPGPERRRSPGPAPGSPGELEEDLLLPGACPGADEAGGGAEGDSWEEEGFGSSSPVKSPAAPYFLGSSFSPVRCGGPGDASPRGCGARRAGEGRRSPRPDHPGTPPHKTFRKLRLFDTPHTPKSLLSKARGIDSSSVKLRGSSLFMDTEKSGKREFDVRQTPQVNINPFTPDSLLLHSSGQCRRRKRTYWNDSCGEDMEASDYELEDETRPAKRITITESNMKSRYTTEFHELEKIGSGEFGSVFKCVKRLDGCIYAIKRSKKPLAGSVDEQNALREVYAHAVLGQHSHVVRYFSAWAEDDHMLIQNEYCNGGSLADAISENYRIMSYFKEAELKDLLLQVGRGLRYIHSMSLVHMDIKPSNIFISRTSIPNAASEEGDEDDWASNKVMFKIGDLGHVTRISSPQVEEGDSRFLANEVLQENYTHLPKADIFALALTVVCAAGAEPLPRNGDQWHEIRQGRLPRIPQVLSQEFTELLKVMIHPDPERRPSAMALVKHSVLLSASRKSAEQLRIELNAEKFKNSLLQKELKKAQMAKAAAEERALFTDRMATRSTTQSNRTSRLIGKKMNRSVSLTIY
T5 sequence (Q96SW2 whole entry): as the sequence (Q96SW2 whole entry) above
T5 sequence (Q16531 whole entry partner): as the sequence (Q16531 whole entry partner) above
T4 sequence (Q9UKT9 whole entry): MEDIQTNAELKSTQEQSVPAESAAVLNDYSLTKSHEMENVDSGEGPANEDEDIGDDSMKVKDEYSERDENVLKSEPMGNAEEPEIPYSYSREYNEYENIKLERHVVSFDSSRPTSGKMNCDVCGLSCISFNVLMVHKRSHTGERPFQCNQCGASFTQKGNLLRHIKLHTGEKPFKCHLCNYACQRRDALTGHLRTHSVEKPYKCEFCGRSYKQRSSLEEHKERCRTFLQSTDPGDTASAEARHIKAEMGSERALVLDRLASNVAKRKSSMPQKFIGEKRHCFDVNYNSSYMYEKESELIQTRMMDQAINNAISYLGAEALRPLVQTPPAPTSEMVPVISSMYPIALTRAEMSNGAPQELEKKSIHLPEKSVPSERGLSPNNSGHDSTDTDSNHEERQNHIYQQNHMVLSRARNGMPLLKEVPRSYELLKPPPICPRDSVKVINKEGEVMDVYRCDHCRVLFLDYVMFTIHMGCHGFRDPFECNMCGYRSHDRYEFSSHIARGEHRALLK
T4 sequence (Q96SW2 whole entry): as the sequence (Q96SW2 whole entry) above
T4 sequence (Q16531 whole entry partner): as the sequence (Q16531 whole entry partner) above

Compound | CK1α substrate protein remaining % [1] | IKZF 1 substrate protein remaining % [2] | IKZF2 substrate protein remaining % [3] | IKZF3 substrate protein remaining % [4] | Wee1 substrate protein remaining % [5] | GSPT1 substrate protein remaining % [6] | inhibition at 0.5 µM [7] [%] | inhibition at 2 µM [7] [%]
Cc1nc(C2=CCN(Cc3cccc4c3CN(C3CCC(=O)NC3=O)C4=S)CC2)c2c(-c3ccccc3)csc2n1 (centres unmarked) [GT-08958, 3-(4-((4-(2-methyl-5-phenylthieno[2,3-d]pyrimidin-4-yl)-3,6-dihydropyridin-1(2H)-yl)methyl)-1-thioxoisoindolin-2-yl)piperidine-2,6-dione] | B (80%< substrate protein remaining %≤ 100%) | B (80%< substrate protein remaining %≤ 100%) | B (80%< substrate protein remaining %≤ 100%) | B (80%< substrate protein remaining %≤ 100%) | A (0% ≤ substrate protein remaining % ≤ 80%) | B (80%< substrate protein remaining %≤ 100%) | 60 to 80 | 80 to 100
Cc1nc(C2=CCN(Cc3cccc4c3CN(C3CCC(=O)NC3=O)C4=S)CC2)c2ccsc2n1 (centres unmarked) [GT-08959, 3-(4-((4-(2-methylthieno[2,3-d]pyrimidin-4-yl)-3,6-dihydropyridin-1(2H)-yl)methyl)-1-thioxoisoindolin-2-yl)piperidine-2,6-dione] | B (80%< substrate protein remaining %≤ 100%) | B (80%< substrate protein remaining %≤ 100%) | B (80%< substrate protein remaining %≤ 100%) | B (80%< substrate protein remaining %≤ 100%) | A (0% ≤ substrate protein remaining % ≤ 80%) | B (80%< substrate protein remaining %≤ 100%) | 60 to 80 | 80 to 100
Cc1nc(C2=CCN(Cc3cccc4c3CN(C3CCC(=O)NC3=O)C4=S)CC2)c2c3c(sc2n1)CCCC3 (centres unmarked) [GT-08961, 3-(4-((4-(2-methyl-5,6,7,8-tetrahydrobenzo[4,5]thieno[2,3-d]pyrimidin-4-yl)-3,6-dihydropyridin-1(2H)-yl)methyl)-1-thioxoisoindolin-2-yl)piperidine-2,6-dione] | B (80%< substrate protein remaining %≤ 100%) | B (80%< substrate protein remaining %≤ 100%) | B (80%< substrate protein remaining %≤ 100%) | B (80%< substrate protein remaining %≤ 100%) | A (0% ≤ substrate protein remaining % ≤ 80%) | B (80%< substrate protein remaining %≤ 100%) | 40 to 53 | 80 to 100
O=C1CCC(N2Cc3c(CN4CC=C(c5ncnc6sc7c(c56)CCC7)CC4)cccc3C2=S)C(=O)N1 (centres unmarked) [GT-08963, 3-(4-((4-(6,7-dihydro-5H-cyclopenta[4,5]thieno[2,3-d]pyrimidin-4-yl)-3,6-dihydropyridin-1(2H)-yl)methyl)-1-thioxoisoindolin-2-yl)piperidine-2,6-dione] | B (80%< substrate protein remaining %≤ 100%) | B (80%< substrate protein remaining %≤ 100%) | B (80%< substrate protein remaining %≤ 100%) | B (80%< substrate protein remaining %≤ 100%) | A (0% ≤ substrate protein remaining % ≤ 80%) | B (80%< substrate protein remaining %≤ 100%) | 60 to 80 | 80 to 100
Cc1nc(C2=CCN(Cc3cccc4c3CN(C3CCC(=O)NC3=O)C4=S)CC2)c2c3c(sc2n1)CCC3 (centres unmarked) [GT-08964, 3-(4-((4-(2-methyl-6,7-dihydro-5H-cyclopenta[4,5]thieno[2,3-d]pyrimidin-4-yl)-3,6-dihydropyridin-1(2H)-yl)methyl)-1-thioxoisoindolin-2-yl)piperidine-2,6-dione] | B (80%< substrate protein remaining %≤ 100%) | B (80%< substrate protein remaining %≤ 100%) | B (80%< substrate protein remaining %≤ 100%) | B (80%< substrate protein remaining %≤ 100%) | A (0% ≤ substrate protein remaining % ≤ 80%) | B (80%< substrate protein remaining %≤ 100%) | 53 to 60 | 80 to 100
O=C1CCC(N2Cc3c(CN4CCN(c5nc(Cl)nc6c5SCC6)CC4)cccc3C2=S)C(=O)N1 (centres unmarked) [GT-08966, 3-(4-((4-(2-chloro-6,7-dihydrothieno[3,2-d]pyrimidin-4-yl)piperazin-1-yl)methyl)-1-thioxoisoindolin-2-yl)piperidine-2,6-dione] | B (80%< substrate protein remaining %≤ 100%) | B (80%< substrate protein remaining %≤ 100%) | B (80%< substrate protein remaining %≤ 100%) | B (80%< substrate protein remaining %≤ 100%) | B (80%< substrate protein remaining %≤ 100%) | A (0% ≤ substrate protein remaining % ≤ 80%) | 80 to 100 | 80 to 100
O=C1CCC(N2Cc3c(CN4CCN(c5nc(N6CCOCC6)nc6c5SCC6)CC4)cccc3C2=S)C(=O)N1 (centres unmarked) [GT-08968, 3-(4-((4-(2-morpholino-6,7-dihydrothieno[3,2-d]pyrimidin-4-yl)piperazin-1-yl)methyl)-1-thioxoisoindolin-2-yl)piperidine-2,6-dione] | B (80%< substrate protein remaining %≤ 100%) | B (80%< substrate protein remaining %≤ 100%) | B (80%< substrate protein remaining %≤ 100%) | B (80%< substrate protein remaining %≤ 100%) | A (0% ≤ substrate protein remaining % ≤ 80%) | B (80%< substrate protein remaining %≤ 100%) | 60 to 80 | 80 to 100
O=C1CCC(N2Cc3c(CN4CCN(c5nc(Cl)nc6ccsc56)CC4)cccc3C2=S)C(=O)N1 (centres unmarked) [GT-08971, 3-(4-((4-(2-chlorothieno[3,2-d]pyrimidin-4-yl)piperazin-1-yl)methyl)-1-thioxoisoindolin-2-yl)piperidine-2,6-dione] | B (80%< substrate protein remaining %≤ 100%) | B (80%< substrate protein remaining %≤ 100%) | B (80%< substrate protein remaining %≤ 100%) | B (80%< substrate protein remaining %≤ 100%) | A (0% ≤ substrate protein remaining % ≤ 80%) | B (80%< substrate protein remaining %≤ 100%) | 80 to 100 | 80 to 100
O=C1CCC(N2Cc3c(CN4CCN(c5nc(N6CCOCC6)nc6ccsc56)CC4)cccc3C2=S)C(=O)N1 (centres unmarked) [GT-09032, 3-(4-((4-(2-morpholinothieno[3,2-d]pyrimidin-4-yl)piperazin-1-yl)methyl)-1-thioxoisoindolin-2-yl)piperidine-2,6-dione] | B (80%< substrate protein remaining %≤ 100%) | B (80%< substrate protein remaining %≤ 100%) | B (80%< substrate protein remaining %≤ 100%) | B (80%< substrate protein remaining %≤ 100%) | A (0% ≤ substrate protein remaining % ≤ 80%) | B (80%< substrate protein remaining %≤ 100%) | 40 to 53 | 80 to 100
O=C1CCC(N2Cc3c(CN4CCN(c5nc(N6CCOCC6)c6sccc6n5)CC4)cccc3C2=S)C(=O)N1 (centres unmarked) [GT-09033, 3-(4-((4-(4-morpholinothieno[3,2-d]pyrimidin-2-yl)piperazin-1-yl)methyl)-1-thioxoisoindolin-2-yl)piperidine-2,6-dione] | B (80%< substrate protein remaining %≤ 100%) | B (80%< substrate protein remaining %≤ 100%) | B (80%< substrate protein remaining %≤ 100%) | B (80%< substrate protein remaining %≤ 100%) | A (0% ≤ substrate protein remaining % ≤ 80%) | B (80%< substrate protein remaining %≤ 100%) | 60 to 80 | 80 to 100
